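96-well plates; 48 h exposure; 5 concentrations. Endpoints by linear interpolation between flanking doses. Not reached: highest tested concentration assigned. GI50: concentration for 50% inhibition of growth. TGI marks complete inhibition of growth.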
Experiments:
Assay in all cases: NCI tumour cell line growth inhibition, 48 h
786-0 renal = test system: 786-0 renal
HCC-2998 colon = test system: HCC-2998 colon
HCT-15 colon = test system: HCT-15 colon
K-562 leukemia = test system: K-562 leukemia
NCI-H522 lung = test system: NCI-H522 lung
OVCAR-3 ovarian = test system: OVCAR-3 ovarian
RXF 393 renal = test system: RXF 393 renal
SF-268 CNS = test system: SF-268 CNS
UACC-257 melanoma = test system: UACC-257 melanoma
UACC-62 melanoma = test system: UACC-62 melanoma

SMILES | GI50 (786-0 renal) | TGI (786-0 renal) | GI50 (HCC-2998 colon) | TGI (HCC-2998 colon) | GI50 (HCT-15 colon) | TGI (HCT-15 colon) | GI50 (K-562 leukemia) | GI50 (NCI-H522 lung) | TGI (NCI-H522 lung) | GI50 (OVCAR-3 ovarian) | TGI (OVCAR-3 ovarian) | GI50 (RXF 393 renal) | TGI (RXF 393 renal) | GI50 (SF-268 CNS) | TGI (SF-268 CNS) | GI50 (UACC-257 melanoma) | TGI (UACC-257 melanoma) | GI50 (UACC-62 melanoma) | TGI (UACC-62 melanoma) | TGI (K-562 leukemia)
CCC[CH2][Sn]([CH2]CCC)([CH2]CCC)[O]C(=O)CC | 0.151 µM | 0.295 µM | 0.171 µM | 0.316 µM | 0.156 µM | 0.409 µM | 0.237 µM | 0.149 µM | 0.299 µM | 0.133 µM | 0.261 µM | 0.14 µM | 0.285 µM | 0.146 µM | 0.345 µM | 0.145 µM | 0.296 µM | 0.178 µM | 0.405 µM | 
CC/C(=C(/c1ccc(OCCN(C)C)cc1)c1ccc(OC(=O)CCCCC(=O)c2c(C)[nH]c(/C=C3\N=C(c4ccc[nH]4)C=C3OC)c2C)cc1)c1ccccc1 | 4.77 µM | 19.2 µM | 13.2 µM | 26.7 µM | 4.44 µM | 28.5 µM | 3.16 µM | 3.59 µM | 14.3 µM | 11.7 µM | 27 µM | 3.86 µM | 17.7 µM | 7.79 µM | 30 µM | 12 µM | 28.9 µM | 4.94 µM | 17.8 µM | 12.6 µM
CNCCCn1cc(C2=C(c3cn(C)c4ccccc34)C(=O)NC2=O)c2ccccc21 | 4.77 µM | 11.3 µM | 5.13 µM | 11.7 µM | 6.04 µM | 22.7 µM | 3.46 µM | 4.01 µM | 8.71 µM | 5.14 µM | 13.8 µM | 3.48 µM | 6.95 µM | 5.24 µM | 12 µM | 4.57 µM | 8.81 µM | 3.96 µM | 7.67 µM | 14.2 µM
O=C1NC(=Nc2ccccc2)S/C1=C\c1ccc2ncccc2c1 | > 25 µM | > 25 µM | > 25 µM | > 25 µM | 1.1 µM | > 25 µM | 0.846 µM | > 12.3 µM | > 25 µM | 1.11 µM | > 25 µM | > 25 µM | > 25 µM | > 10.3 µM | > 25 µM | > 25 µM | > 25 µM | 13.4 µM | > 25 µM | > 25 µM
O=C(O/N=C1/CCCC/C1=C\c1ccccc1)c1ccccc1 |  | > 100 µM |  | > 100 µM |  | > 100 µM |  |  | > 100 µM |  | > 100 µM |  | > 100 µM |  | > 100 µM |  | > 100 µM |  | > 100 µM | 41 µM
C#Cc1cccc(Nc2ncnc3cc(OC)c(OCCCCCCC(=O)NO)cc23)c1 | 0.448 µM | 4.68 µM | 0.217 µM | 1.34 µM | 1.17 µM | 6.1 µM | 0.0817 µM | 0.0305 µM | 0.43 µM | 0.129 µM | 1.64 µM | 0.0752 µM | 0.367 µM | 0.379 µM | 2.65 µM | 0.123 µM | 1.12 µM | 0.0797 µM | 0.344 µM | 
C/C1=C\CC[C@@]2(C)O[C@@H]2[C@H]2OC(=O)[C@@H](CN(C)C)[C@@H]2CC1 | 7.61 µM | 24 µM | 18 µM | 35.7 µM | 15.9 µM | 34.3 µM | 2.54 µM | 2.65 µM | 7.06 µM | 12.1 µM | 32.4 µM | 16.1 µM | 50.5 µM | 38.7 µM | > 100 µM | 12.8 µM | 28.4 µM | 17.7 µM | 34.9 µM | 59.1 µM
COC(=O)/C=C/c1cc(O)c2oc(-c3ccc(O)c(O)c3)c(C(=O)OC)c2c1 | 3.67 µM | 16.3 µM | 2.09 µM | 11.2 µM | 0.0672 µM | 11.2 µM | 0.0511 µM | 0.0472 µM | 4.72 µM | 0.147 µM | 3.43 µM | 0.523 µM | 4.84 µM | 1.52 µM | 12.5 µM | 2.83 µM | 16.5 µM | 0.802 µM | 5.96 µM | 26.9 µM
COc1cc(Nc2cn[nH]c2-c2ccc(Cl)cc2)cc(OC)c1OC | 6.8 µM | 36.2 µM | 5.46 µM | 23.4 µM | 4.35 µM | 50 µM | 2.49 µM | 6.81 µM | 37.5 µM | 3.44 µM | 14.4 µM | 10.4 µM | > 64.1 µM | 6.76 µM | > 70.5 µM | 15.7 µM | > 83.6 µM | 3.61 µM | 18.9 µM | 97.2 µM

From PubChem BioAssay (NCI)
